Results taken from ChEMBL document CHEMBL4627324, “Design and synthesis of novel 2-arylbenzimidazoles as selective mutant isocitrate dehydrogenase 2 R140Q inhibitors” (Bioorg Med Chem Lett, 2020).
“And” between values parts separate entries of the source, which are not always exact repeats. Identical values can stand only once.

Experiments:
[1] = target: Isocitrate dehydrogenase [NADP], mitochondrial (Homo sapiens, UniProt P48735, R140Q); test: Inhibition of IDH2 R140Q mutant (unknown origin)
[2] = target: Isocitrate dehydrogenase [NADP] cytoplasmic (Homo sapiens, UniProt O75874, R132H); test: Inhibition of IDH1 R132H mutant (unknown origin)
Sequence of Isocitrate dehydrogenase [NADP] cytoplasmic (Homo sapiens, UniProt O75874, R132H) (O75874 2-414 R132H limits assumed): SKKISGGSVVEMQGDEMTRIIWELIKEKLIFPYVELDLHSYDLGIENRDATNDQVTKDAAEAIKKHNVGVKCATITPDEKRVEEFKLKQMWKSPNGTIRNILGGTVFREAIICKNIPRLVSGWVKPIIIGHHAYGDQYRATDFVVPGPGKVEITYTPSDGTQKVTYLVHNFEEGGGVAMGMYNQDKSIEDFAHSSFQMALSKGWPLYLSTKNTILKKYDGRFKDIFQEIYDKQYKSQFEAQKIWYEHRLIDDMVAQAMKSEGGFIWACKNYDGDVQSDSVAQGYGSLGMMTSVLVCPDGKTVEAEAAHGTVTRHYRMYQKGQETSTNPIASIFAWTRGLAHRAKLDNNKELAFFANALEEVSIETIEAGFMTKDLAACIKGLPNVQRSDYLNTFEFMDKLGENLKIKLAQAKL

[3] = target: Isocitrate dehydrogenase [NADP] cytoplasmic (Homo sapiens, UniProt O75874); test: Inhibition of wild type IDH1 (unknown origin)
Sequence of Isocitrate dehydrogenase [NADP] cytoplasmic (Homo sapiens, UniProt O75874) (O75874 whole entry): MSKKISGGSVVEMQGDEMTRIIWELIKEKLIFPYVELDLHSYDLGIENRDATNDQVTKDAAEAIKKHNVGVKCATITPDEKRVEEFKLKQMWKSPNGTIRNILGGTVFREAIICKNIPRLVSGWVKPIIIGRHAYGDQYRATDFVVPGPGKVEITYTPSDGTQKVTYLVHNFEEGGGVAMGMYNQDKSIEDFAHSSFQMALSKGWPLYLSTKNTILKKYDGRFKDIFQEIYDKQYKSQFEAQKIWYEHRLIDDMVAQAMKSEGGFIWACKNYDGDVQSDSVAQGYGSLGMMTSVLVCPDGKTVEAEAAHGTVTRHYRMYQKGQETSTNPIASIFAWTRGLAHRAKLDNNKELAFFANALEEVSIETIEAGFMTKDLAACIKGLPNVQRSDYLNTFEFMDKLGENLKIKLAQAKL

[4] = target: T1, Isocitrate dehydrogenase [NADP], mitochondrial (Homo sapiens, UniProt P48735); test: Inhibition of wild type IDH2 (unknown origin)
T1 sequence (P48735 whole entry): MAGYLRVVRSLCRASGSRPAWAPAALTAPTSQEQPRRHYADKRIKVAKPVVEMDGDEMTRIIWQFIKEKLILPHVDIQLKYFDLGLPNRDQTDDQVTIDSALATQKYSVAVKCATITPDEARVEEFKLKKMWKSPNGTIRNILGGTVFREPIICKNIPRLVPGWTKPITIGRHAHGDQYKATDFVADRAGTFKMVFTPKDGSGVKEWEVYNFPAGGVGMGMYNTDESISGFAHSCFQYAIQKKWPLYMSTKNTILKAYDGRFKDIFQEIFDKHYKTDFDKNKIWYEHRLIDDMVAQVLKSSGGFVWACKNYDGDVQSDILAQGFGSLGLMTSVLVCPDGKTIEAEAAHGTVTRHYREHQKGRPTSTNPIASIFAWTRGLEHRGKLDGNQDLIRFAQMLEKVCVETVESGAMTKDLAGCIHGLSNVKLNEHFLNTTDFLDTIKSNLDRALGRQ

[5] = target: Isocitrate dehydrogenase [NADP], mitochondrial (Homo sapiens, UniProt P48735, R172K); test: Inhibition of IDH2 R172K mutant (unknown origin)
Sequence of Isocitrate dehydrogenase [NADP], mitochondrial (Homo sapiens, UniProt P48735, R172K) (P48735 40-452 R172K limits assumed): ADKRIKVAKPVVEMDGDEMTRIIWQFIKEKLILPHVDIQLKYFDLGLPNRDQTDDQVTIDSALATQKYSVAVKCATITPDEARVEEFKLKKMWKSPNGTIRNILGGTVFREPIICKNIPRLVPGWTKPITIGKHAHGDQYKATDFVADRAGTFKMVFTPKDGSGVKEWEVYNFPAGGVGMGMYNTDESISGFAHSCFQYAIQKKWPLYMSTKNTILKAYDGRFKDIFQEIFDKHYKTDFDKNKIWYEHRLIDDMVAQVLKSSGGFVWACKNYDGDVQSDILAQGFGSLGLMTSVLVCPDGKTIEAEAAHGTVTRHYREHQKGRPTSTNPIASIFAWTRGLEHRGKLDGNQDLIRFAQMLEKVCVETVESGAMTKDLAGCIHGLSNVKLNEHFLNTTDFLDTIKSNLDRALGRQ

[6] = target: Isocitrate dehydrogenase [NADP] cytoplasmic (Homo sapiens, UniProt O75874, R132C); test: Inhibition of IDH1 R132C mutant (unknown origin)
Sequence of Isocitrate dehydrogenase [NADP] cytoplasmic (Homo sapiens, UniProt O75874, R132C) (O75874 2-414 R132C limits assumed): as the sequence (O75874 2-414 R132H limits assumed) above, with H131C counted along it

Sequence of Isocitrate dehydrogenase [NADP], mitochondrial (Homo sapiens, UniProt P48735, R140Q) (P48735 40-452 R140Q limits assumed): as the sequence (P48735 40-452 R172K limits assumed) above, with R101Q, K133R counted along it

IC50 [1]	IC50 [2] [µM]	IC50 [3] [µM]	IC50 [4] [µM]	IC50 [5] [µM]	IC50 [6] [µM]	Structure (SMILES)
46.9 µM	–	–	–	–	–	COc1ccc2nc(Nc3cc(S(=O)(=O)NC4CC4)ccc3-c3ccsc3)[nH]c2c1
0.73 µM	> 100	> 100	> 100	78.8	> 100	O=S(=O)(NC1CC1)c1ccc(-c2ccsc2)c(Nc2nc3cc(F)ccc3[nH]2)c1
4.94 µM	–	–	–	–	–	O=S(=O)(NC1CC1)c1ccc(-c2ccsc2)c(Nc2nc3cc(F)cc(F)c3[nH]2)c1
4.34 µM	–	–	–	–	–	O=S(=O)(NC1CC1)c1ccc(-c2ccsc2)c(Nc2nc3ccc(C(F)(F)F)c(Cl)c3[nH]2)c1
10.3 µM	–	–	–	–	–	O=S(=O)(NC1CC1)c1ccc(-c2ccsc2)c(Nc2nc3ccc(F)c(Cl)c3[nH]2)c1
–	> 100	> 100	–	–	> 100	O=C(Nc1cccc(C(F)(F)F)c1)Nc1cc(S(=O)(=O)NC2CC2)ccc1-c1ccsc1
1.61 µM	–	–	–	–	–	Cc1ccc2nc(Nc3cc(S(=O)(=O)NC4CC4)ccc3-c3ccsc3)[nH]c2c1C
13.8 µM	–	–	–	–	–	O=S(=O)(NC1CC1)c1ccc(-c2ccsc2)c(Nc2nc3ccc(F)c(F)c3[nH]2)c1
0.31 µM	> 100	> 100	> 100	1.08	> 100	CC(C)(O)CNc1nc(Nc2ccnc(C(F)(F)F)c2)nc(-c2cccc(C(F)(F)F)n2)n1 [ENASIDENIB]
2.72 µM	–	–	–	–	–	O=S(=O)(NC1CC1)c1ccc(-c2ccsc2)c(Nc2nc3ccc(Cl)c(Cl)c3[nH]2)c1
97.9 µM	–	–	–	–	–	N#Cc1ccc2nc(Nc3cc(S(=O)(=O)NC4CC4)ccc3-c3ccsc3)[nH]c2c1
11.9 µM	–	–	–	–	–	O=S(=O)(NC1CC1)c1ccc(-c2ccsc2)c(Nc2nc3ccc(Cl)cc3[nH]2)c1
14.1 µM	–	–	–	–	–	O=S(=O)(NC1CC1)c1ccc(-c2ccsc2)c(Nc2nc3ccc(C(F)(F)F)cc3[nH]2)c1
> 100 µM	0.17	> 100	> 100	> 100	0.39	Cc1ccccc1C(C(=O)NC1CCCCC1)N(C(=O)Cn1ccnc1C)c1cccc(F)c1 (configuration not stated)
5.41 µM	–	–	–	–	–	O=S(=O)(NC1CC1)c1ccc(-c2ccsc2)c(Nc2nc3ccccc3[nH]2)c1
> 100 µM	–	–	–	–	–	COC(=O)c1ccc2nc(Nc3cc(S(=O)(=O)NC4CC4)ccc3-c3ccsc3)[nH]c2c1
2.02 µM and 0.26 µM	> 100	> 100	> 100	> 100	> 100	O=S(=O)(NC1CC1)c1ccc(-c2ccsc2)c(Nc2nc3cc(Br)ccc3[nH]2)c1
> 100 µM	–	–	–	–	–	CCOC(=O)c1ccc2nc(Nc3cc(S(=O)(=O)NC4CC4)ccc3-c3ccsc3)[nH]c2c1
0.65 µM	> 100	> 100	> 100	> 100	> 100	O=S(=O)(NC1CC1)c1ccc(-c2ccsc2)c(Nc2nc3ccc(Br)c(Br)c3[nH]2)c1
0.96 µM	> 100	> 100	> 100	51.8	> 100	Cc1cc(C)c2[nH]c(Nc3cc(S(=O)(=O)NC4CC4)ccc3-c3ccsc3)nc2c1
